From patent US9765087B2, “Benzimidazole derivatives” (ENANTA PHARMACEUTICALS, INC., priority 2009, dated 2017)
Read-outs that look alike come from different tables or passages of the source.

Key:
[1] = system: HCV 1a genotype replicon; experiment: HCV replicon assay (qRT-PCR or luciferase), genotype 1a; assay type: cell-based; details: Hepatitis C virus
Procedure, shortened: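 Bartenschlager HCV replicon Huh cells; EC50 from HCV RNA by TaqMan qRT-PCR normalised to GAPDH, cytotoxicity by MTS. Combination studies in Huh-luc/neo-ET cells seeded at 7,000/well, compounds in 6-point two-fold dilutions, 0.2% DMSO final, 72 h at 37 °C, luciferase read-out.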

[2] = system: HCV 1b genotype replicon; experiment: HCV replicon assay (qRT-PCR or luciferase), genotype 1b; assay type: cell-based; details: Hepatitis C virus
Procedure, shortened: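 Genotype 1b subgenomic replicon Huh-luc/neo-ET cells (7,000/well) treated with compound for 72 h at 37 °C, 0.2% DMSO final; replication read by firefly luciferase. EC50 alternatively from qRT-PCR of HCV RNA normalized to GAPDH; cytotoxicity by MTS.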

[3] = Table 12, range class, read-out: 1a EC50 Range
[4] = Table 12, numeric values, read-out: 1b EC50
[5] = Table 12, numeric values, read-out: 1a EC50
[6] = Table 12, range class, read-out: 1b EC50 Range

SMILES: COC(=O)N[C@H](C(=O)N1CCC[C@H]1c1nc(-c2ccc(C#Cc3ccc4[nH]c([C@@H]5C[C@@]6(CCOC6)CN5C(=O)[C@@H](NC(=O)OC)C(C)C)nc4c3)cc2)c[nH]1)C(C)C [Example 630]
- EC50 [1, 3]: < 1 nM
- EC50 [2, 4]: 0.011 nM

SMILES: COC(=O)N[C@H](C(=O)N1CCC[C@H]1c1nc(-c2ccc3nc(-c4ccc5[nH]c([C@@H]6CC7(CC7)CN6C(=O)[C@@H](NC(=O)OC)C(C)C)nc5c4)ccc3c2)c[nH]1)C(C)C [Example 574]
- EC50 [1, 5]: 0.127 nM
- EC50 [2, 4]: 0.036 nM

SMILES: COC(=O)N[C@@H](CF)C(=O)N1CC2(CC2)C[C@H]1c1nc(-c2ccc(C#Cc3ccc4[nH]c([C@@H]5CC6(CC6)CN5C(=O)[C@@H](NC(=O)OC)C(C)C)nc4c3)cc2)c[nH]1 [Example 615]
- EC50 [1, 3]: < 1 nM
- EC50 [2, 4]: 0.005 nM

SMILES: COC(=O)N[C@H](C(=O)N1CC2(CC2)C[C@H]1c1ncc(-c2ccc(C#Cc3ccc4nc([C@@H]5C[C@]6(CCCOC6)CN5C(=O)[C@@H](NC(=O)OC)C(C)C)[nH]c4c3)cc2)[nH]1)C(C)C [Example 639]
- EC50 [1, 3]: < 1 nM
- EC50 [2, 4]: 0.008 nM

SMILES: COC(=O)N[C@H](C(=O)N1CCC[C@H]1c1nc(-c2ccc3nc(-c4ccc5[nH]c([C@@H]6CC7(CC7)CN6C(=O)[C@@H](NC(=O)OC)C(C)C)nc5c4)ncc3c2)c[nH]1)C(C)C [Example 644]
- EC50 [1, 3]: < 1 nM
- EC50 [2, 4]: 0.045 nM

SMILES: COC(=O)N[C@H](C(=O)N1CCC[C@H]1c1ncc(-c2ccc(C#Cc3ccc4nc([C@@H]5C[C@@]6(CCCOC6)CN5C(=O)[C@@H](NC(=O)OC)C(C)C)[nH]c4c3)cc2)[nH]1)C(C)C [Example 569]
- EC50 [1, 3]: < 1 nM
- EC50 [2, 4]: 0.009 nM

SMILES: COC(=O)N[C@H](C(=O)N1CCC[C@H]1c1nc(-c2ccc(C#Cc3ccc4[nH]c([C@@H]5CC6(CCOCC6)CN5C(=O)[C@@H](NC(=O)OC)C(C)C)nc4c3)cc2)c[nH]1)C(C)C [Example 568]
- EC50 [1, 3]: < 1 nM
- EC50 [2, 4]: 0.009 nM

SMILES: COC(=O)N[C@H](C(=O)N1CC2(CC2)C[C@H]1c1ncc(-c2ccc(C#Cc3ccc4nc([C@@H]5C[C@H](C6CC6)CN5C(=O)[C@@H](NC(=O)OC)C(C)C)[nH]c4c3)cc2)[nH]1)C(C)C [Example 691]
- EC50 [1, 3]: < 1 nM
- EC50 [2, 6]: < 1 nM

SMILES: COC(=O)N[C@H](C(=O)N1C[C@@H](OC)C[C@H]1c1nc(-c2ccc(C#Cc3ccc4[nH]c([C@@H]5C[C@@]6(CCCO6)CN5C(=O)[C@@H](NC(=O)OC)C(C)C)nc4c3)cc2)c[nH]1)C(C)C [Example 558]
- EC50 [1, 3]: < 1 nM
- EC50 [2, 6]: < 1 nM

SMILES: COC(=O)N[C@H](C(=O)N1CCC[C@H]1c1ncc(-c2ccc(C#Cc3ccc4nc([C@@H]5CC6(CC6)CN5C(=O)[C@H](NC(=O)OC)c5ccccc5)[nH]c4c3)cc2)[nH]1)C(C)C [Example 646]
- EC50 ([1]; read-out: 1a EC50 Range, Table 12, range class): < 1 nM
- EC50 [2, 4]: 0.005 nM

SMILES: COC(=O)N[C@H](C(=O)N1C[C@H](F)C[C@H]1c1nc(-c2ccc(C#Cc3ccc4[nH]c([C@@H]5C[C@@]6(CCCO6)CN5C(=O)[C@@H](NC(=O)OC)C(C)C)nc4c3)cc2)c[nH]1)C(C)C [Example 629]
- EC50 [1, 5]: 0.18 nM
- EC50 [2, 4]: 0.017 nM

SMILES: COC(=O)N[C@H](C(=O)N1CC2(CC2)C[C@H]1c1ncc(-c2ccc(C#Cc3ccc4nc([C@@H]5C[C@@H](C6CC6)CN5C(=O)[C@@H](NC(=O)OC)C(C)C)[nH]c4c3)cc2)[nH]1)C(C)C [Example 612]
- EC50 [1, 3]: < 1 nM
- EC50 [2, 6]: < 1 nM

SMILES: COC(=O)N[C@H](C(=O)N1CCC[C@H]1c1nc(-c2ccc(C#Cc3ccc4[nH]c([C@@H]5C[C@]6(CCOC6)CN5C(=O)[C@@H](NC(=O)OC)C(C)C)nc4c3)cc2)c[nH]1)C(C)C [Example 564]
- EC50 [1, 3]: < 1 nM
- EC50 [2, 4]: 0.008 nM

SMILES: COC(=O)N[C@H](C(=O)N1CCC[C@H]1c1ncc(-c2ccc(C#Cc3ccc4nc([C@@H]5C[C@H](C6CC6)CN5C(=O)[C@@H](NC(=O)OC)C(C)C)[nH]c4c3)cc2)[nH]1)C(C)C [Example 641]
- EC50 [1, 3]: < 1 nM
- EC50 [2, 4]: 0.007 nM

SMILES: [2H]c1c([2H])c(-c2c[nH]c([C@@H]3CC4(CC4)CN3C(=O)[C@@H](NC(=O)OC)C(C)C)n2)c([2H])c([2H])c1C#Cc1ccc2[nH]c([C@@H]3CC4(CC4)CN3C(=O)[C@@H](NC(=O)OC)C(C)C)nc2c1 [Example 575]
- EC50 [1, 3]: < 1 nM
- EC50 [2, 6]: < 1 nM

SMILES: COC(=O)N[C@H](C(=O)N1CC2(CC2)C[C@H]1c1ncc(-c2ccc(C#Cc3ccc4nc([C@@H]5CC6(CC6)CN5C(=O)[C@H](NC(=O)OC)c5ccc(F)cc5)[nH]c4c3)cc2)[nH]1)C(C)C [Example 580]
- EC50 [1, 3]: < 1 nM
- EC50 [2, 4]: 0.007 nM

SMILES: COC(=O)N[C@@H](CCCNC(N)=O)C(=O)N1CC2(CC2)C[C@H]1c1nc(-c2ccc(C#Cc3ccc4[nH]c([C@@H]5CC6(CC6)CN5C(=O)[C@@H](NC(=O)OC)C(C)C)nc4c3)cc2)c[nH]1 [Example 616]
- EC50 [1, 3]: < 1 nM
- EC50 [2, 4]: 0.495 nM

SMILES: COC(=O)N[C@H](C(=O)N1C[C@@]2(C[C@H]1c1nc(-c3ccc(C#Cc4ccc5[nH]c([C@@H]6CC7(CC7)CN6C(=O)[C@@H](NC(=O)OC)C(C)C)nc5c4)cc3)c[nH]1)CC2(F)F)C(C)C [Example 687]
- EC50 [1, 3]: < 1 nM
- EC50 [2, 4]: 0.01 nM

SMILES: COC(=O)N[C@H](C(=O)N1CC2(CC2)C[C@H]1c1ncc(-c2ccc(C#Cc3ccc4nc([C@@H]5C[C@@]6(CCCCO6)CN5C(=O)[C@@H](NC(=O)OC)C(C)C)[nH]c4c3)cc2)[nH]1)C(C)C [Example 633]
- EC50 [1, 5]: 0.035 nM
- EC50 [2, 6]: < 1 nM

SMILES: COC(=O)N[C@H](C(=O)N1C[C@](C)(F)C[C@H]1c1nc(-c2ccc(C#Cc3ccc4[nH]c([C@@H]5C[C@@]6(CCCO6)CN5C(=O)[C@@H](NC(=O)OC)C(C)C)nc4c3)cc2)c[nH]1)C(C)C [Example 567]
- EC50 [1, 3]: < 1 nM
- EC50 [2, 4]: 0.015 nM

SMILES: COC(=O)N[C@H](C(=O)N1CCC[C@H]1c1nc(-c2ccc3cc(-c4ccc5[nH]c([C@@H]6CC7(CC7)CN6C(=O)[C@@H](NC(=O)OC)C(C)C)nc5c4)ccc3c2)c[nH]1)C(C)C [Example 692]
- EC50 [1, 3]: < 1 nM
- EC50 [2, 4]: 0.011 nM

SMILES: COC(=O)N[C@H](C(=O)N1CC2(CC2)C[C@H]1c1nc2ccc(C#Cc3ccc(-c4cnc([C@@H]5C[C@H]6C[C@H]6N5C(=O)[C@@H](NC(=O)OC)C(C)C)[nH]4)cc3)cc2[nH]1)C(C)C [Example 637]
- EC50 [1, 3]: < 1 nM
- EC50 [2, 4]: 0.004 nM

SMILES: COC(=O)N[C@H](C(=O)N1C[C@]2(CCCO2)C[C@H]1c1nc(-c2ccc(C#Cc3ccc4[nH]c([C@@H]5CC6(CC6)CN5C(=O)[C@@H](NC(=O)OC)C(C)C)nc4c3)cc2)c[nH]1)C(C)C [Example 546]
- EC50 [1, 3]: < 1 nM
- EC50 [2, 4]: 0.012 nM

SMILES: COC(=O)N[C@H](C(=O)N1CCC[C@H]1c1ncc(-c2ccc(C#Cc3ccc4nc([C@@H]5C[C@@]6(CCC(=O)O6)CN5C(=O)[C@@H](NC(=O)OC)C(C)C)[nH]c4c3)cc2)[nH]1)C(C)C [Example 635]
- EC50 [1, 3]: < 1 nM
- EC50 [2, 6]: < 1 nM

SMILES: COC(=O)N[C@H](C(=O)N1CCC[C@H]1c1ncc(-c2ccc3nc(-c4ccc5nc([C@@H]6CC7(CC7)CN6C(=O)[C@@H](NC(=O)OC)C(C)C)[nH]c5c4)cnc3c2)[nH]1)C(C)C [Example 643]
- EC50 [1, 3]: < 1 nM
- EC50 [2, 4]: 0.054 nM

SMILES: COC(=O)NCCCC[C@H](NC(=O)OC)C(=O)N1CCC[C@H]1c1nc(-c2ccc(C#Cc3ccc4[nH]c([C@@H]5CC6(CC6)CN5C(=O)[C@@H](NC(=O)OC)C(C)C)nc4c3)cc2)c[nH]1 [Example 693]
- EC50 [1, 3]: < 1 nM
- EC50 [2, 6]: < 1 nM

SMILES: COC(=O)N[C@H](C(=O)N1CC2(CC2)C[C@H]1c1nc(-c2ccc(C#Cc3ccc4[nH]c([C@@H]5C[C@@]6(CCCO6)CN5C(=O)[C@@H](NC(=O)OC)C(C)C)nc4c3)cc2)c[nH]1)C(C)C [Example 555]
- EC50 [1, 3]: < 1 nM
- EC50 [2, 4]: 0.007 nM

SMILES: COC(=O)N[C@H](C(=O)N1CC2(CC2)C[C@H]1c1nc(-c2ccc(C#Cc3ccc4[nH]c([C@@H]5C[C@@]6(CCOC6)CN5C(=O)[C@@H](NC(=O)OC)C(C)C)nc4c3)cc2)c[nH]1)C(C)C [Example 631]
- EC50 [1, 3]: < 1 nM
- EC50 [2, 4]: 0.008 nM

SMILES: COC(=O)N[C@H](C(=O)N1CC2(CC2)C[C@H]1c1nc2ccc(C#Cc3ccc(-c4cnc([C@@H]5CC6(CC6)CN5C(=O)[C@H](NC(=O)OC)c5ccccc5)[nH]4)cc3)cc2[nH]1)C(C)C (stereo in doubt) [Example 647]
- EC50 [1, 3]: < 1 nM
- EC50 [2, 4]: 0.008 nM

SMILES: COC(=O)N[C@H](C(=O)N1CC(F)(F)C[C@H]1c1nc(-c2ccc(C#Cc3ccc4[nH]c([C@@H]5C[C@@]6(CCCO6)CN5C(=O)[C@@H](NC(=O)OC)C(C)C)nc4c3)cc2)c[nH]1)C(C)C [Example 627]
- EC50 [1, 3]: < 1 nM
- EC50 [2, 4]: 0.01 nM

SMILES: COC(=O)N[C@H](C(=O)N1CC2(CC2)C[C@H]1c1ncc(-c2ccc(C#Cc3ccc4nc([C@@H]5C[C@@]6(CCCOC6)CN5C(=O)[C@@H](NC(=O)OC)C(C)C)[nH]c4c3)cc2)[nH]1)C(C)C [Example 638]
- EC50 [1, 3]: < 1 nM
- EC50 [2, 4]: 0.007 nM

SMILES: COC(=O)N[C@H](C(=O)N1CC2(CC2)C[C@H]1c1ncc(-c2ccc(C#Cc3ccc4nc([C@@H]5C[C@]6(CCOC6)CN5C(=O)[C@@H](NC(=O)OC)C(C)C)[nH]c4c3)cc2)[nH]1)C(C)C [Example 565]
- EC50 [1, 3]: < 1 nM
- EC50 [2, 4]: 0.011 nM

SMILES: COC(=O)N[C@@H](COC(N)=O)C(=O)N1CCC[C@H]1c1ncc(-c2ccc(C#Cc3ccc4nc([C@@H]5CC6(CC6)CN5C(=O)[C@@H](NC(=O)OC)C(C)C)[nH]c4c3)cc2)[nH]1 [Example 552]
- EC50 [1, 3]: < 1 nM
- EC50 [2, 6]: < 1 nM

SMILES: COC(=O)N[C@H](C(=O)N1C[C@]2(C[C@H]1c1ncc(-c3ccc(C#Cc4ccc5nc([C@@H]6CC7(CC7)CN6C(=O)[C@@H](NC(=O)OC)C(C)C)[nH]c5c4)cc3)[nH]1)CC2(F)F)C(C)C [Example 614]
- EC50 [1, 3]: < 1 nM
- EC50 [2, 4]: 0.004 nM
